What was measured:
[1] = molecular target: T1, Glucocorticoid receptor (Homo sapiens, UniProt P04150); format: functional
T1 sequence (P04150 whole entry): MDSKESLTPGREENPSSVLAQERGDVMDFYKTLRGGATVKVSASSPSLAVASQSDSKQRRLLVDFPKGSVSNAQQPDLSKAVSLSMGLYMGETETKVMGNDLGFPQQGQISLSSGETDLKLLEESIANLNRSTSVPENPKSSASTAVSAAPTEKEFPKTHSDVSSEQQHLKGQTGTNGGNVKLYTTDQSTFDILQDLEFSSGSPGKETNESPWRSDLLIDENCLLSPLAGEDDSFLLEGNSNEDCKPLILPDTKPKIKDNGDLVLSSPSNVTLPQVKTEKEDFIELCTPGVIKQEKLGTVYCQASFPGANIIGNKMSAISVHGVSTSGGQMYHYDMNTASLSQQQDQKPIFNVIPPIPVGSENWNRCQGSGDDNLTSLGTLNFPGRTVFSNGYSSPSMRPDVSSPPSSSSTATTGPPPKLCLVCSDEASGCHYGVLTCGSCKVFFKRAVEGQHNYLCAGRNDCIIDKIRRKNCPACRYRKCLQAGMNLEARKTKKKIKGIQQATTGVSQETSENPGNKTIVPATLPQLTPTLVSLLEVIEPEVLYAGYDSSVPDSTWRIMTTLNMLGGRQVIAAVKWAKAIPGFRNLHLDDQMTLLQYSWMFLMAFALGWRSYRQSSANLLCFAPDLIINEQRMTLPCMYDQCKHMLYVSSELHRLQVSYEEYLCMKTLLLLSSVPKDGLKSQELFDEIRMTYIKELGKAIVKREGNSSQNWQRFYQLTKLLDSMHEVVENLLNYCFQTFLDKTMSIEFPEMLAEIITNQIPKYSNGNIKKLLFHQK
Description: Antagonist activity at GR assessed as inhibition of dexamethasone-induced GRE activation

[2] = molecular target: T1, Glucocorticoid receptor; format: functional; remark: listed apart in the source
Description: Agonist activity at GR by GRE activation assay

[3] = molecular target: T1, Glucocorticoid receptor
Description: Displacement of radiolabeled Dexamethasone from glucocorticoid receptor

[4] = molecular target: T1, Glucocorticoid receptor; format: functional; remark: listed apart in the source
Description: Activity at GR assessed as repression of TNFalpha and IL 1-beta induced E-selectin response

[5] = molecular target: T1, Glucocorticoid receptor; remark: listed apart in the source
Description: Agonist activity at GR by GRE activation assay relative to Dexamethasone

[6] = molecular target: T2, Progesterone receptor (Homo sapiens, UniProt P06401); assay: Binding affinity at PR
T2 sequence (P06401 whole entry): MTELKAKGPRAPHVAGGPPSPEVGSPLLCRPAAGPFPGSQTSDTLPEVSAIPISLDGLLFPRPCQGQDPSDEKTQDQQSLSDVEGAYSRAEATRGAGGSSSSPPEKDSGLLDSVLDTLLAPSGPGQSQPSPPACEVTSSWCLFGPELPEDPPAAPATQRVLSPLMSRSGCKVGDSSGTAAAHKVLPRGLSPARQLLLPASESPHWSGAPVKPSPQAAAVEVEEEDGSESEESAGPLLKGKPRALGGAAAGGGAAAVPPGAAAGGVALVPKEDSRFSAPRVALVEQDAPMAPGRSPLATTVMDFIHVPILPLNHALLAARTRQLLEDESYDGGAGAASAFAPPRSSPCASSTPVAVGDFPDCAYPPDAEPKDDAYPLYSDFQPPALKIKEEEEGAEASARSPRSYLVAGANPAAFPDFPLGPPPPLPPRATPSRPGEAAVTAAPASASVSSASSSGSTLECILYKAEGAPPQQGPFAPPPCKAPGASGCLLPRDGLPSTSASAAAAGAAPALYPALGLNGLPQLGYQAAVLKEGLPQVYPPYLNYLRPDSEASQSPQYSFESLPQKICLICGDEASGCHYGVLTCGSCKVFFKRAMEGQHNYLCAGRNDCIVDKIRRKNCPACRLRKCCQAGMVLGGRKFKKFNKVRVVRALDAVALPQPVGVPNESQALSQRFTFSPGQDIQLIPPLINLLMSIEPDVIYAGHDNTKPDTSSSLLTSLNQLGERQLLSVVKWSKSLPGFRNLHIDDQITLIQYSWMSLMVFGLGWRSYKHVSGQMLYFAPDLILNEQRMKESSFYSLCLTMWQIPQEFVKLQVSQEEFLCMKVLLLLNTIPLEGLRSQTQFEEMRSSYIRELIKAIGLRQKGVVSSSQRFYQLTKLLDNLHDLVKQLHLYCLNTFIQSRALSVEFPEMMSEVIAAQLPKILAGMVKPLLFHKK

[7] = molecular target: T3, Androgen receptor (Homo sapiens, UniProt P10275); assay: Binding affinity at AR
T3 sequence (P10275 whole entry): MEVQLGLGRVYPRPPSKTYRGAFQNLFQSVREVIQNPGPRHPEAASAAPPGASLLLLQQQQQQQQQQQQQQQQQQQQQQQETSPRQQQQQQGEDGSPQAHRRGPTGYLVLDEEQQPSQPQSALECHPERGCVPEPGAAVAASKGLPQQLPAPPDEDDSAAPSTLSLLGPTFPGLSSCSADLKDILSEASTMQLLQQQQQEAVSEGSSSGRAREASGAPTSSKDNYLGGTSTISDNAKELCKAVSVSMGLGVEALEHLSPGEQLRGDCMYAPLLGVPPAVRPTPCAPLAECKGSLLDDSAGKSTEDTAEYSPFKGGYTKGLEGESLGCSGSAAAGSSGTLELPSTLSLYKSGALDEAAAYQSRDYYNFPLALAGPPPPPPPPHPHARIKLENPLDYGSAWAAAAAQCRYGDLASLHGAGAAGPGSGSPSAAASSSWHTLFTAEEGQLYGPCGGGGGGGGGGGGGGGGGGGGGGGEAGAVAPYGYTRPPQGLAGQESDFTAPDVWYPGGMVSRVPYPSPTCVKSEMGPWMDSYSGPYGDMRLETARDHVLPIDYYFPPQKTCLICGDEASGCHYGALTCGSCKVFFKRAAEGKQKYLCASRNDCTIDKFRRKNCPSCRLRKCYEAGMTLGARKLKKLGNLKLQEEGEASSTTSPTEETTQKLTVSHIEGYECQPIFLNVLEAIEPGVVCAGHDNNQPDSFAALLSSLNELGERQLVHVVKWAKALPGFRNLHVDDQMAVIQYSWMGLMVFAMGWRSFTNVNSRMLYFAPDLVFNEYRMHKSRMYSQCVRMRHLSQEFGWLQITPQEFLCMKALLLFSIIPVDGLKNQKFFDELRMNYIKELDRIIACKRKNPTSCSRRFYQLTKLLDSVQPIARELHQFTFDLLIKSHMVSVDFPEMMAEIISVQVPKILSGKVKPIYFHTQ

Row | SMILES | IC50 [1] [nM] | EC50 [2] [nM] | Ki [3] [nM] | IC50 [4] [nM] | EC50 [5] [nM] | EC50 [1] [nM] | Ki [6] [nM] | Ki [7] [nM]
1 | COc1c(O)ccc2c1-c1ccc3c(c1/C(=C/c1ccc(F)cc1S(=O)(=O)N1CCCCC1)O2)C(C)=CC(C)(C)N3 | 6.6 | 108 | 94 | 22 | – | – | – | –
2 | COc1c(O)ccc2c1-c1ccc3c(c1/C(=C/c1cccc(-c4ccccc4)c1)O2)C(C)=CC(C)(C)N3 | 2.3 | > 1000 | 7.2 | 12 | > 1000 | – | – | –
3 | COc1c(O)ccc2c1-c1ccc3c(c1/C(=C/c1ccc(O)cc1)O2)C(C)=CC(C)(C)N3 | 0.4 | 1.1 | 1.1 | 1 | – | – | – | –
4 | COc1c(O)ccc2c1-c1ccc3c(c1/C(=C/c1cccc(-c4cccnc4)c1)O2)C(C)=CC(C)(C)N3 | 0.7 | > 1000 | 1.5 | 3.6 | > 1000 | – | – | –
5 | COc1c(O)ccc2c1-c1ccc3c(c1/C(=C/c1ccc(C)cc1)O2)C(C)=CC(C)(C)N3 | 12 | 38 | 1.9 | 15 | – | – | – | –
6 | COc1c(O)ccc2c1-c1ccc3c(c1/C(=C/c1cccc(-c4ccsc4)c1)O2)C(C)=CC(C)(C)N3 | 0.5 | > 1000 | 3.1 | 1.4 | > 1000 | – | – | –
7 | COc1c(O)ccc2c1-c1ccc3c(c1/C(=C/c1cccc(C)n1)O2)C(C)=CC(C)(C)N3 | 1.1 | 0.7 | 1.6 | 4.9 | – | – | – | –
8 | COc1c(O)ccc2c1-c1ccc3c(c1/C(=C/c1ccccc1Cl)O2)C(C)=CC(C)(C)N3 | 24 | 18 | 15 | 18 | – | – | – | –
9 | CCc1ccc(/C=C2\Oc3ccc(O)c(OC)c3-c3ccc4c(c32)C(C)=CC(C)(C)N4)cc1 | – | 207 | – | – | – | > 1000 | – | –
10 | COc1c(O)ccc2c1-c1ccc3c(c1/C(=C/c1cccc(C(F)(F)F)c1)O2)C(C)=CC(C)(C)N3 | 2.5 | > 1000 | 2.7 | 4.1 | > 1000 | – | – | –
11 | COc1c(O)ccc2c1-c1ccc3c(c1/C(=C/c1ccc(-c4ccccc4)cc1)O2)C(C)=CC(C)(C)N3 | – | 33 | 4.4 | 77 | – | > 1000 | – | –

Further lines, results first:

Row | IC50 [1] [nM] | EC50 [2] [nM] | Ki [3] [nM] | IC50 [4] [nM] | EC50 [5] [nM] | EC50 [1] [nM] | Ki [6] [nM] | Ki [7] [nM] | SMILES
12 | 3.6 | 4.5 | 6.7 | 4.4 | – | – | – | – | COc1c(O)ccc2c1-c1ccc3c(c1/C(=C/c1ccccc1-c1ccccc1)O2)C(C)=CC(C)(C)N3
13 | 1.9 | > 1000 | 4.6 | 74 | > 1000 | – | – | – | COc1c(O)ccc2c1-c1ccc3c(c1/C(=C/c1cccc(Oc4ccccc4)c1)O2)C(C)=CC(C)(C)N3
14 | – | 455 | 2.9 | – | – | > 1000 | – | – | COc1c(O)ccc2c1-c1ccc3c(c1/C(=C/c1ccc(C(C)C)cc1)O2)C(C)=CC(C)(C)N3
15 | > 1000 | 43 | 1.7 | 12 | – | – | – | – | COc1c(O)ccc2c1-c1ccc3c(c1/C(=C/c1ccc(Cl)cc1)O2)C(C)=CC(C)(C)N3
16 | 0.4 | 3.4 | 1.7 | 1 | – | – | – | – | COc1c(O)ccc2c1-c1ccc3c(c1/C(=C/c1ccccc1C)O2)C(C)=CC(C)(C)N3
17 | 1.9 | > 1000 | 4.1 | 4.7 | > 1000 | – | – | – | COc1c(O)ccc2c1-c1ccc3c(c1/C(=C/c1cccc(OC(F)(F)F)c1)O2)C(C)=CC(C)(C)N3
18 | 2.6 | – | 2.6 | 15 | – | – | – | – | COc1c(O)ccc2c1-c1ccc3c(c1/C(=C/c1cccc(C(F)(F)F)c1C)O2)C(C)=CC(C)(C)N3
19 | – | – | – | – | – | – | 400 | 570 | COc1c(O)ccc2c1-c1ccc3c(c1/C(=C/c1cccc(C)c1)O2)C(C)=CC(C)(C)N3
20 | – | > 1000 | 4.3 | 91 | – | > 1000 | – | – | COc1c(O)ccc2c1-c1ccc3c(c1/C(=C/c1ccc(OC(F)(F)F)cc1)O2)C(C)=CC(C)(C)N3
21 | 1.3 | 0.6 | 0.8 | 1.4 | – | – | – | – | COc1c(O)ccc2c1-c1ccc3c(c1/C(=C/c1ccccc1F)O2)C(C)=CC(C)(C)N3
22 | – | 133 | 2.7 | 10 | – | > 1000 | – | – | COc1ccc(/C=C2\Oc3ccc(O)c(OC)c3-c3ccc4c(c32)C(C)=CC(C)(C)N4)cc1
